# Results published in patent publication US11426397B2, “Piperidinyl- and piperazinyl-substituted heteroaromatic carboxamides as modulators of GPR6” (TAKEDA PHARMACEUTICAL COMPANY LIMITED, priority 2017, dated 2022).
# Molecular target: T1, GPR6 receptor expressed in CHO-K1 cells (Homo sapiens, UniProt P46095)
# T1 construct: expressed in transfected cells
# Assay: In vitro inhibition of cAMP (EC50), cell-based HTRF cAMP assay
# Conditions: inhibition of constitutive cAMP activity of GPR6 in CHO-K1 cells
# Method in brief: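 Tetracycline-inducible CHO-K1 line, GPR6 expression induced 20 h with 2 μg/mL doxycycline. Compounds incubated 45 min at 37 °C in Ringer's buffer (pH 7.4) with 0.5% fatty acid free BSA and 300 μM IBMX. Constitutive cAMP read by Lance HTRF; EC50 from four-parameter logistic fit.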
# T1 sequence (P46095 whole entry): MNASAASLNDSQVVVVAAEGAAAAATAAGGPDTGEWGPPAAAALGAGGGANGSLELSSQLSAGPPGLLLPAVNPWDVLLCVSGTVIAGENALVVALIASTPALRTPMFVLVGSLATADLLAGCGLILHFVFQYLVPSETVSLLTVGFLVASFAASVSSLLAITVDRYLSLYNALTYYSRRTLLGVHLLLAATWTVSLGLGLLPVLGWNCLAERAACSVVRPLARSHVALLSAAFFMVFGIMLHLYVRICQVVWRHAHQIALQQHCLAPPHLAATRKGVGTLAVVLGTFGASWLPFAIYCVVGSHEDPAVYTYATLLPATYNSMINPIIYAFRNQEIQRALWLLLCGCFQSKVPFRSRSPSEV
row,SMILES,"pEC50, in vitro inhibition of cAMP"
1,"COc1ncccc1C(=O)Nc1cc(C#N)ccc1N1CCN(S(=O)(=O)c2ccc(F)cc2)CC1 [Example 287, N-(5-cyano-2-(4-((4-fluorophenyl)sulfonyl)piperazin-1-yl)phenyl)-2-methoxynicotinamide]",6.2
2,Cc1ccc(NC(=O)c2cnn(C)c2O)c(N2CCN(Cc3ccc(F)cc3)CC2)n1 [Example 104],<5.7
3,"Cc1ocnc1C(=O)Nc1cc(C#N)ccc1N1CCC(Oc2ccc(F)cc2F)CC1 [Example 127, N-(5-cyano-2-(4-(2,4-difluorophenoxy)piperidin-1-yl)phenyl)-5-methyloxazole-4-carboxamide]",6.1
4,"COc1cc(Cl)c(Cl)cc1C(=O)Nc1cc(C#N)ccc1N1CCC(Oc2ccc(F)cc2F)CC1 [Example 190, 4,5-dichloro-N-(5-cyano-2-(4-(2,4-difluorophenoxy)piperidin-1-yl)phenyl)-2-methoxybenzamide]",6.5
5,"COc1nn(C)cc1C(=O)Nc1cc(C#N)cnc1N1CCN(Cc2cccc(OC(F)(F)F)c2)CC1 [Example 165, N-(5-cyano-2-(4-(3-(trifluoromethoxy)benzyl)piperazin-1-yl)pyridin-3-yl)-3-methoxy-1-methyl-1H-pyrazole-4-carboxamide]",6.7
6,"Cn1cccc(C(=O)Nc2cc(C#N)ccc2N2CCC(C(F)(F)c3ccc(F)cc3F)CC2)c1=O [Example 86, N-(5-cyano-2-(4-((2,4-difluorophenyl)difluoromethyl)piperidin-1-yl)phenyl)-1-methyl-2-oxo-1,2-dihydropyridine-3-carboxamide]",6.8
7,"COc1cc(C(F)(F)F)ccc1C(=O)Nc1cc(C#N)ccc1N1CCC(Oc2ccc(F)cc2F)CC1 [Example 194, N-(5-cyano-2-(4-(2,4-difluorophenoxy)piperidin-1-yl)phenyl)-2-methoxy-4-(trifluoromethyl)benzamide]",6.3
8,COc1cc(F)c(F)cc1C(=O)Nc1cc(C#N)ccc1N1CCC(Oc2ccc(F)cc2F)CC1 [Example 229],7.3
9,"COc1ncccc1C(=O)Nc1cnc(C#N)cc1N1CCC(Oc2ccc(F)cc2F)CC1 [Example 270, N-(6-cyano-4-(4-(2,4-difluorophenoxy)piperidin-1-yl)pyridin-3-yl)-2-methoxynicotinamide]",6.9
10,"COc1ccc(OC2CCN(c3ccc(C#N)cc3NC(=O)c3cccn(C)c3=O)CC2)c(F)c1 [Example 29, N-(5-cyano-2-(4-(2-fluoro-4-methoxyphenoxy)piperidin-1-yl)phenyl)-1-methyl-2-oxo-1,2-dihydropyridine-3-carboxamide]",7.3
11,"COc1nn(C)cc1C(=O)Nc1cc(C#N)cnc1N1CCN(Cc2ccc(C#N)cc2)CC1 [Example 153, N-(5-cyano-2-(4-(4-cyanobenzyl)piperazin-1-yl)pyridin-3-yl)-3-methoxy-1-methyl-1H-pyrazole-4-carboxamide]",6.4
12,"COc1ccc(CN2CCN(c3ncc(C#N)cc3NC(=O)c3cn(C)nc3OC)CC2)cc1 [Example 157, N-(5-cyano-2-(4-(4-methoxybenzyl)piperazin-1-yl)pyridin-3-yl)-3-methoxy-1-methyl-1H-pyrazole-4-carboxamide]",6.7
13,"N#Cc1ccc(N2CCC(Oc3ccc(F)cc3F)CC2)c(NC(=O)c2cccc3c2OCC3)c1 [Example 27, N-(5-cyano-2-(4-(2,4-difluorophenoxy)piperidin-1-yl)phenyl)-2,3-dihydrobenzofuran-7-carboxamide]",7.4
14,"COc1ccc(C(=O)C2CCN(c3ccc(C#N)cc3NC(=O)c3cccn(C)c3=O)CC2)c(F)c1 [Example 81, N-(5-cyano-2-(4-(2-fluoro-4-methoxybenzoyl)piperidin-1-yl)phenyl)-1-methyl-2-oxo-1,2-dihydropyridine-3-carboxamide]",6.9
15,"Cc1nc(C(=O)Nc2cc(C#N)ccc2N2CCC(Oc3ccc(F)cc3F)CC2)c(C)o1 [Example 110, N-(5-cyano-2-(4-(2,4-difluorophenoxy)piperidin-1-yl)phenyl)-2,5-dimethyloxazole-4-carboxamide]",6.3
16,"COc1ncccc1C(=O)Nc1cc(C#N)ccc1N1CCN(Cc2cccc(C#N)c2)CC1 [Example 248, N-(5-cyano-2-(4-(3-cyanobenzyl)piperazin-1-yl)phenyl)-2-methoxynicotinamide]",6.9

row,SMILES,"pEC50, in vitro inhibition of cAMP"
1,"COc1ccc(C)cc1C(=O)Nc1cc(C#N)ccc1N1CCC(Oc2ccc(F)cc2F)CC1 [Example 237, N-(5-cyano-2-(4-(2,4-difluorophenoxy)piperidin-1-yl)phenyl)-2-methoxy-5-methylbenzamide]",6.7
2,"Cc1cc(C(=O)Nc2cc(C#N)ccc2N2CCC(Oc3ccc(F)cc3F)CC2)nc(C)n1 [Example 135, N-(5-cyano-2-(4-(2,4-difluorophenoxy)piperidin-1-yl)phenyl)-2,6-dimethylpyrimidine-4-carboxamide]",6.8
3,"O=C(Nc1ccccc1N1CCN(C(=O)c2ccc(Cl)cc2)CC1)c1ncccn1 [Example 258, N-(2-(4-(4-chlorobenzoyl)piperazin-1-yl)phenyl)pyrimidine-2-carboxamide]",4.9
4,"CC(C)n1cccc(C(=O)Nc2cc(C#N)ccc2N2CCC(Oc3ccc(F)cc3F)CC2)c1=O [Example 181, N-(5-cyano-2-(4-(2,4-difluorophenoxy)piperidin-1-yl)phenyl)-1-isopropyl-2-oxo-1,2-dihydropyridine-3-carboxamide]",6.4
5,"Cc1cn2c(=O)c(C(=O)Nc3cc(C#N)ccc3N3CCC(Oc4ccc(F)cc4F)CC3)cnc2s1 [Example 217, N-(5-cyano-2-(4-(2,4-difluorophenoxy)piperidin-1-yl)phenyl)-2-methyl-5-oxo-5H-thiazolo[3,2-a]pyrimidine-6-carboxamide]",6.7
6,"COc1ccncc1C(=O)Nc1ccc(C#N)cc1N1CCC(Oc2ccc(F)cc2F)CC1 [Example 92, N-(4-cyano-2-(4-(2,4-difluorophenoxy)piperidin-1-yl)phenyl)-4-methoxynicotinamide]",7.3
7,"Cn1cccc(C(=O)Nc2cc(C#N)ccc2N2CCC([C@@H](F)c3ccc(F)cc3F)CC2)c1=O [Example 85, (R)—N-(5-cyano-2-(4-((2,4-difluorophenyl)fluoromethyl)piperidin-1-yl)phenyl)-1-methyl-2-oxo-1,2-dihydropyridine-3-carboxamide]",7.2
8,"COc1ncccc1C(=O)Nc1cc(CO)cnc1N1CCC(Oc2ccc(F)cc2F)CC1 [Example 34, N-(2-(4-(2,4-difluorophenoxy)piperidin-1-yl)-5-(hydroxymethyl)pyridin-3-yl)-2-methoxynicotinamide]",7.0
9,"COc1cccc(CN2CCN(c3ncc(C#N)cc3NC(=O)c3cn(C)nc3OC)CC2)c1 [Example 156, N-(5-cyano-2-(4-(3-methoxybenzyl)piperazin-1-yl)pyridin-3-yl)-3-methoxy-1-methyl-1H-pyrazole-4-carboxamide]",6.4
10,"COc1ncccc1C(=O)Nc1cc(C#N)ccc1N1CCN(Cc2ccc(F)c(F)c2)CC1 [Example 246, N-(5-cyano-2-(4-(3,4-difluorobenzyl)piperazin-1-yl)phenyl)-2-methoxynicotinamide]",7.1
11,"Cn1cccc(C(=O)Nc2cc(C#N)ccc2N2CCC(C(F)(F)c3cc(Cl)ccc3F)CC2)c1=O [Example 89, N-(2-(4-((5-chloro-2-fluorophenyl)difluoromethyl)piperidin-1-yl)-5-cyanophenyl)-1-methyl-2-oxo-1,2-dihydropyridine-3-carboxamide]",6.3
12,COc1nccc(C(=O)Nc2cc(C#N)ccc2N2CCC(Oc3ccc(F)cc3F)CC2)n1 [Example 144],6.9
13,"COc1nn(C)cc1C(=O)Nc1cc(C#N)cnc1N1CCN(Cc2ccc(OC(F)(F)F)cc2)CC1 [Example 166, N-(5-cyano-2-(4-(4-(trifluoromethoxy)benzyl)piperazin-1-yl)pyridin-3-yl)-3-methoxy-1-methyl-1H-pyrazole-4-carboxamide]",6.1
14,"COc1ncccc1C(=O)Nc1cnc(C(=O)NC(C)C)cc1N1CCC(Oc2ccc(F)cc2F)CC1 [Example 253, 4-(4-(2,4-difluorophenoxy)piperidin-1-yl)-N-isopropyl-5-(2-methoxynicotinamido)picolinamide]",6.8
15,"Cc1cnc(C(=O)Nc2cc(C#N)ccc2N2CCC(Oc3ccc(F)cc3F)CC2)cn1 [Example 123, N-(5-cyano-2-(4-(2,4-difluorophenoxy)piperidin-1-yl)phenyl)-5-methylpyrazine-2-carboxamide]",6.5
16,"Cn1cccc(C(=O)Nc2cc(C#N)ccc2N2CCC(Oc3cccc(F)c3)CC2)c1=O [Example 12, N-(5-cyano-2-(4-(3-fluorophenoxy)piperidin-1-yl)phenyl)-1-methyl-2-oxo-1,2-dihydropyridine-3-carboxamide]",6.4

# Same assay, conditions: inhibition of constitutive cAMP activity of GPR6 in CHO-K1 cells; read-out: pEC50, in vitro inhibition of cAMP (converted)
row,SMILES,EC50 [nM]
1,"N#Cc1cnc(N2CCC(Cc3ccccc3)CC2)c(NC(=O)c2ccccn2)c1 [Example 67, N-(2-(4-benzylpiperidin-1-yl)-5-cyanopyridin-3-yl)picolinamide]",100
